Measured values as given in patent EP0169787B1, “Use of oligonucleotides bonded to an intercalating agent as drugs” (priority 1984, dated 1986).
Like-named read-outs stand apart in the source and are kept apart here.

Tests used:
virus SV40 = test: Inhibition of SV40 multiplication (cytopathogenic effect) in CV1 cell cultures; type: cell-based; conditions: 3 jours, témoins 75
A/Victoria (H3N2) = type: cell-based; conditions: cellules MDCK; for Pourcentage de destruction cellulaire Cultures infectées (effet cytopathogène) par A/Victoria (H3N2): 3 jours
cellules CV1 = type: cell-based, singe
Experimental: La dilution de virus dans un tampon phosphate isotonique a été choisie de façon […] cultures témoins environ 75% de destruction cellulaire (75% d'effet cytopathogène) après 3 jours d'incubation. Après 1 heure de contact à 37°C, l'inocu- lum […] du même milieu contenant ou non les produits à étudier sont ajoutés. […] Des cultures de cellules non infectées par le virus et traitées avec les produits ont été aussi examinées pour […] cytotoxiques éventuels. Les pourcentages de destruction cellulaire dans les cultures infectées (effet cytopathogène) et dans les cultures non infectées (effet cytotoxique des produits) sont indiqués dans le tableau V.

Row | Structure (SMILES) | Pourcentage de destruction cellulaire Cultures infectées par SV40 (effet cytopathogène) (virus SV40; 0,5 µg/ml) [%] | Pourcentage de destruction cellulaire Cultures infectées par SV40 (effet cytopathogène) (virus SV40; 0,5 µg/ml, listed as Acr(CH2)50H) | Pourcentage de destruction cellulaire Cultures infectées par SV40 (effet cytopathogène) (virus SV40; 0,25 µg/ml) [%] | Pourcentage de destruction cellulaire Cultures infectées par SV40 (effet cytopathogène) (virus SV40; 0,25 µg/ml, listed as Acr(CH2)50H) | Pourcentage de destruction cellulaire Cultures infectées par SV40 (effet cytopathogène) (virus SV40; 1,0 µg/ml) [%] | Pourcentage de destruction cellulaire Cultures infectées par SV40 (effet cytopathogène) (virus SV40; 2,0 µg/ml) [%] | Pourcentage de destruction cellulaire Cultures infectées (effet cytopathogène) par A/Victoria (H3N2) (A/Victoria (H3N2); 0,5 µg/ml) [%] | Pourcentage de destruction cellulaire Cultures infectées (effet cytopathogène) par A/Victoria (H3N2) (A/Victoria (H3N2); 0,25 µg/ml) [%] | Pourcentage de destruction cellulaire Cultures infectées (effet cytopathogène) par A/Victoria (H3N2) (A/Victoria (H3N2); 1,0 µg/ml) [%] | effet inhibiteur de la multiplication du virus grippal A/Victoria (H3N2) (A/Victoria (H3N2); result in words) | effet cytotoxique / toxicité vis-à-vis des cellules saines (cellules CV1)
1 | COc1ccc2nc3cc(Cl)ccc3c(NCCCCCO)c2c1 [Acr(CH2)5OH, méthoxy-2 chloro-6 (ω-hydroxypentyl-amino)-9 acridine] | 50 | n'exerce pas d'effet inhibiteur significatif | 75 | n'exerce pas d'effet inhibiteur significatif | 75 | 100 | 100 | 100 | 100 | dépourvu d'activité | 
2 | COc1ccc2nc3cc(Cl)ccc3c(NCCCCCCO)c2c1 [HO(CH2)6 Z", méthoxy-2-chloro-6(ω-hydroxyhexylamino)-9 acridine] |  |  |  |  |  |  |  |  |  |  | trop important
